Assay results: ChEMBL document CHEMBL4680085 (J Med Chem, 2016)
Active and inactive are the calls of the source. No cut-off for these calls is given here.

target: T1, Nuclear factor erythroid 2-related factor 2 (Homo sapiens) (UniProt Q16236); test: Activation of NRF2 in human MCF-7/AREc32 cells at 3 uM incubated for 24 hrs by luciferase reporter gene assay; type: cell-based; conditions: MCF7, filed as activator
T1 sequence (whole entry): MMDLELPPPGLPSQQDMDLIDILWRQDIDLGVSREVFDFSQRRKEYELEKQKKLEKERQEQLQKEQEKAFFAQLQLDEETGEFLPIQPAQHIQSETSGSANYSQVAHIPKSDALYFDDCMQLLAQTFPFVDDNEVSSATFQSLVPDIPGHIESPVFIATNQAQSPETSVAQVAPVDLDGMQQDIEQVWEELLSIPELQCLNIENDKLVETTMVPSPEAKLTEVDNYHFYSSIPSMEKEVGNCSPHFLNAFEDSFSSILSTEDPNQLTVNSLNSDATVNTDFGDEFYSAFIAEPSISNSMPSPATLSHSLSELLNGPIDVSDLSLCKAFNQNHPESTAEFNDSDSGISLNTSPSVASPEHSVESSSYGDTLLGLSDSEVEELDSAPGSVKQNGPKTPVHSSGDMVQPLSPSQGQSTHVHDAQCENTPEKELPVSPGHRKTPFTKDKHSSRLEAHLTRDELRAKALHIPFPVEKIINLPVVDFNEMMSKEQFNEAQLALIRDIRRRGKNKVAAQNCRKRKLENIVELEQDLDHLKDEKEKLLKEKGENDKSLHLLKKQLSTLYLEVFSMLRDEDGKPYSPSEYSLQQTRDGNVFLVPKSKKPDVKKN

| Compound | Activity |
| --- | --- |
| COc1ccc2[nH]cc(CCNC(C)=O)c2c1 [MELATONIN] | Active |
| CC(C)(C)c1cc(O)ccc1O | Active |

tested on: SH-SY5Y; test: Neuroprotection in human SH-SY5Y cells assessed as reduction in beta-amyloid peptide (1-42)-induced cell death at 3 uM incubated for 24 hrs by MTT assay; type: functional; set-up: scale not given: the % may be the effect or the level left; conditions: not given

| Compound | Activity |
| --- | --- |
| COc1ccc2[nH]cc(CCNC(C)=O)c2c1 [MELATONIN] | 15.3% |

target: T1, Nuclear factor erythroid 2-related factor 2 (Homo sapiens); test: Activation of NRF2 in human MCF-7/AREc32 cells at 10 to 30 uM incubated for 24 hrs by luciferase reporter gene assay; type: cell-based; conditions: MCF7, filed as activator, dose 10-30 µM

| Compound | Activity |
| --- | --- |
| COc1ccc2[nH]cc(CCNC(C)=O)c2c1 [MELATONIN] | Active |
| CC(C)(C)c1cc(O)ccc1O | Active |

tested on: SH-SY5Y; test: Neuroprotection in human SH-SY5Y cells assessed as reduction in beta-amyloid peptide (1-40)-induced cell death at >0.01 uM incubated for 24 hrs by MTT assay; type: functional, cell-based; conditions: dose microM >0.01, time […]

| Compound | Activity |
| --- | --- |
| COc1ccc2[nH]cc(CCNC(C)=O)c2c1 [MELATONIN] | inactive |

tested on: SH-SY5Y; test: Neuroprotection in human SH-SY5Y cells assessed as reduction in beta-amyloid peptide (1-42)-induced cell death at >0.01 uM incubated for 24 hrs by MTT assay; type: functional, cell-based; conditions: dose microM >0.01, time […]

| Compound | Activity |
| --- | --- |
| COc1ccc2[nH]cc(CCNC(C)=O)c2c1 [MELATONIN] | inactive |

tested on: SH-SY5Y; test: Neuroprotection in human SH-SY5Y cells assessed as reduction in H2O2-induced cell death at 0.01 uM incubated for 24 hrs by MTT assay; type: functional; set-up: scale not given: the % may be the effect or the level left; conditions: not given

| Compound | Activity |
| --- | --- |
| COc1ccc2[nH]cc(CCNC(C)=O)c2c1 [MELATONIN] | 55.4% |

target: T1, Nuclear factor erythroid 2-related factor 2 (Homo sapiens); test: Activation of NRF2 in human MCF-7/AREc32 cells assessed as concentration required to double Nrf2 transcriptional pathway by measuring specific luciferase reporter activity incubated for 24 hrs by luciferase reporter gene assay; type: cell-based; conditions: MCF7

| Compound | CD |
| --- | --- |
| COc1ccc2[nH]cc(CCNC(C)=O)c2c1 [MELATONIN] | > 60 µM |

same assay, conditions: MCF7, filed as activator

| Compound | CD |
| --- | --- |
| CC(C)(C)c1cc(O)ccc1O | 1.68 µM |

tested on: SH-SY5Y; test: Neuroprotection in human SH-SY5Y cells assessed as reduction in H2O2-induced cell death at >0.01 uM incubated for 24 hrs by MTT assay; type: functional, cell-based; conditions: dose microM >0.01, time […]

| Compound | Activity |
| --- | --- |
| COc1ccc2[nH]cc(CCNC(C)=O)c2c1 [MELATONIN] | inactive |

tested on: SH-SY5Y; test: Neuroprotection in human SH-SY5Y cells assessed as reduction in Rotenone/Oligomycin A -induced cell death at 0.01 uM incubated for 24 hrs by MTT assay; type: functional; set-up: scale not given: the % may be the effect or the level left; conditions: not given

| Compound | Activity |
| --- | --- |
| COc1ccc2[nH]cc(CCNC(C)=O)c2c1 [MELATONIN] | 66.6% |

tested on: not listed separately; test: in vitro; conditions: human, HepG2 cells
Description: Toxicity in human HepG2 cells assessed as cell viability at 1000 uM by MTT assay relative to control

| Compound | viability at 1000 µM |
| --- | --- |
| COc1ccc2[nH]cc(CCNC(C)=O)c2c1 [MELATONIN] | 72.3% |

tested on: SH-SY5Y; test: Neuroprotection in human SH-SY5Y cells assessed as reduction in Rotenone/Oligomycin A -induced cell death at 1 uM incubated for 24 hrs by MTT assay; type: functional; set-up: scale not given: the % may be the effect or the level left; conditions: not given

| Compound | Activity |
| --- | --- |
| COc1ccc2[nH]cc(CCNC(C)=O)c2c1 [MELATONIN] | 50.1% |

tested on: SH-SY5Y; test: Neuroprotection in human SH-SY5Y cells assessed as reduction in Rotenone/Oligomycin A -induced cell death at 3 uM incubated for 24 hrs by MTT assay; type: functional; set-up: scale not given: the % may be the effect or the level left; conditions: not given

| Compound | Activity |
| --- | --- |
| COc1ccc2[nH]cc(CCNC(C)=O)c2c1 [MELATONIN] | 59.1% |

tested on: not listed separately; test: in vitro; conditions: human, HepG2 cells; remark: another data set of the same source
Description: Toxicity in human HepG2 cells assessed as cell viability at 300 uM by MTT assay relative to control

| Compound | viability at 300 µM |
| --- | --- |
| COc1ccc2[nH]cc(CCNC(C)=O)c2c1 [MELATONIN] | 71.8% |

tested on: SH-SY5Y; test: Neuroprotection in human SH-SY5Y cells assessed as reduction in beta-amyloid peptide (1-42)-induced cell death at 1 uM incubated for 24 hrs by MTT assay; type: functional; set-up: scale not given: the % may be the effect or the level left; conditions: not given

| Compound | Activity |
| --- | --- |
| COc1ccc2[nH]cc(CCNC(C)=O)c2c1 [MELATONIN] | 39.4% |

tested on: SH-SY5Y; test: Neuroprotection in human SH-SY5Y cells assessed as reduction in H2O2-induced cell death at 3 uM incubated for 24 hrs by MTT assay; type: functional; set-up: scale not given: the % may be the effect or the level left; conditions: not given

| Compound | Activity |
| --- | --- |
| COc1ccc2[nH]cc(CCNC(C)=O)c2c1 [MELATONIN] | 60.7% |

tested on: SH-SY5Y; test: Neuroprotection in human SH-SY5Y cells assessed as reduction in Rotenone/Oligomycin A -induced cell death at >0.01 uM incubated for 24 hrs by MTT assay; type: functional, cell-based; conditions: dose microM >0.01, time […]

| Compound | Activity |
| --- | --- |
| COc1ccc2[nH]cc(CCNC(C)=O)c2c1 [MELATONIN] | inactive |

tested on: SH-SY5Y; test: Neuroprotection in human SH-SY5Y cells assessed as reduction in beta-amyloid peptide (1-42)-induced cell death at 0.01 uM incubated for 24 hrs by MTT assay; type: functional; set-up: scale not given: the % may be the effect or the level left; conditions: not given

| Compound | Activity |
| --- | --- |
| COc1ccc2[nH]cc(CCNC(C)=O)c2c1 [MELATONIN] | 81.4% |

tested on: SH-SY5Y; test: Neuroprotection in human SH-SY5Y cells assessed as reduction in beta-amyloid peptide (1-40)-induced cell death at 3 uM incubated for 24 hrs by MTT assay; type: functional; set-up: scale not given: the % may be the effect or the level left; conditions: not given

| Compound | Activity |
| --- | --- |
| COc1ccc2[nH]cc(CCNC(C)=O)c2c1 [MELATONIN] | 60.2% |

tested on: SH-SY5Y; test: Neuroprotection in human SH-SY5Y cells assessed as reduction in beta-amyloid peptide (1-40)-induced cell death at 0.01 uM incubated for 24 hrs by MTT assay; type: functional; set-up: scale not given: the % may be the effect or the level left; conditions: not given

| Compound | Activity |
| --- | --- |
| COc1ccc2[nH]cc(CCNC(C)=O)c2c1 [MELATONIN] | 33% |

tested on: SH-SY5Y; test: Neuroprotection in human SH-SY5Y cells assessed as reduction in H2O2-induced cell death at 1 uM incubated for 24 hrs by MTT assay; type: functional; set-up: scale not given: the % may be the effect or the level left; conditions: not given

| Compound | Activity |
| --- | --- |
| COc1ccc2[nH]cc(CCNC(C)=O)c2c1 [MELATONIN] | 47.4% |

tested on: SH-SY5Y; test: Neuroprotection in human SH-SY5Y cells assessed as reduction in beta-amyloid peptide (1-40)-induced cell death at 1 uM incubated for 24 hrs by MTT assay; type: functional; set-up: scale not given: the % may be the effect or the level left; conditions: not given

| Compound | Activity |
| --- | --- |
| COc1ccc2[nH]cc(CCNC(C)=O)c2c1 [MELATONIN] | 35.5% |

tested on: not listed separately; test: in vitro; conditions: human, HepG2 cells; remark: another data set of the same source
Description: Toxicity in human HepG2 cells assessed as cell viability at 100 uM by MTT assay relative to control

| Compound | viability at 100 µM |
| --- | --- |
| COc1ccc2[nH]cc(CCNC(C)=O)c2c1 [MELATONIN] | 91.4% |
